# Results: the C3SDB collision cross section collection
# Where “and” joins values, the source holds several entries; their conditions need not be identical. Equal values may be shown once.
# Key:
# [1] = instrument: TW, calibrated with polyalanine
# [2] = instrument: TW, calibrated with polyalanine; remark: listed apart in the source
# [3] = instrument: DT, stepped-field
# [4] = [M+H]+; instrument: DT; single field, calibrated with Agilent tune mix (Agilent)
# [5] = instrument: DT, stepped-field; remark: listed apart in the source
# [6] = instrument: DT, single field
# [7] = instrument: DT, single field, calibrated with Agilent tune mix (Agilent)
# [8] = instrument: DT, stepped-field; remark: listed apart in the source
# [9] = instrument: TW, calibrated with phosphatidylcholines (ESI+) and phosphatidylethanolamines (ESI-)
# [10] = instrument: DT, stepped-field; remark: listed apart in the source
# [11] = [M-H]-; instrument: TW; calibrated with phosphatidylcholines (ESI+) and phosphatidylethanolamines (ESI-)
smiles,measurement,setting,value
O=C(O)C(CO)OP(=O)(O)O (stereo not given) [2-Phosphoglyceric acid],collision cross section (N2),[1]; [M+Na]+,132 Å²
CC(=O)O[C@@H]1C[C@]2(C)[C@@]3(CO)[C@H](O)C(=O)C(C)=C[C@H]3O[C@H]1[C@@]21CO1 [3-Acetyldeoxynivalenol],collision cross section (N2),[2]; [M+H3C2O2]-,196 Å²
O=C1CC[C@@H](C(=O)O)N1 [5-Oxoproline],collision cross section (N2),[1]; [M+H]+,121 Å²
CC(=O)OC[C@]12[C@H](O)C(=O)C(C)=C[C@H]1O[C@@H]1[C@H](O)C[C@@]2(C)[C@]12CO2 [15-Acetyldeoxynivalenol],collision cross section (N2),[2]; [M+H3C2O2]-,196 Å²
CN(C)C(N)=NCCC[C@H](N)C(=O)O [ADMA],collision cross section (N2),[1]; [M+H]+,141 Å²
CC(=O)N[C@@H]1[C@@H](O)[C@H](O)[C@@H](CO)O[C@H]1O [Acetylglucosamine],collision cross section (N2),[1]; [M+Na]+,153 Å²
COc1cc2c(c3oc(=O)c4c(c13)CCC4=O)[C@@H]1C=CO[C@@H]1O2 [Aflatoxin B1],collision cross section (N2),[2]; [M+H]+,161 Å²
same,collision cross section (N2),[2]; [M+K]+,177.1 Å²
same,collision cross section (N2),[2]; [M+Na]+,164 Å²
COc1cc2c(c3oc(=O)c4c(c13)CCOC4=O)C1C=COC1O2 (stereo not given) [Aflatoxin G1],collision cross section (N2),[2]; [M+H]+,164 Å²
same,collision cross section (N2),[2]; [M+K]+,180.2 Å²
same,collision cross section (N2),[2]; [M+Na]+,176.5 Å²
COc1cc2c(c3oc(=O)c4c(c13)CCC4=O)[C@]1(O)C=CO[C@@H]1O2 [Aflatoxin M1],collision cross section (N2),[2]; [M+H]+,166 Å²
same,collision cross section (N2),[2]; [M+K]+,177.8 Å²
same,collision cross section (N2),[2]; [M+Na]+,179.5 Å²
CC[C@H](C)[C@H](NC(=O)[C@H](Cc1ccc(O)cc1)NC(=O)[C@@H](NC(=O)[C@H](CCCN=C(N)N)NC(=O)[C@@H](N)CC(=O)O)C(C)C)C(=O)N[C@@H](Cc1cnc[nH]1)C(=O)N1CCC[C@H]1C(=O)N[C@@H](Cc1ccccc1)C(=O)O [Angiotensin II],collision cross section (N2),[3]; [M+2H]2+,353.79 Å²
same,collision cross section (N2),[3]; [M+3H]3+,436.24 Å²
same,collision cross section (N2),[3]; [M+H]+,314.38 Å²
NC(N)=NCCC[C@H](N)C(=O)O [Arginine],collision cross section (N2),[1]; [M+H]+,133 Å²
C[N+](C)(C)CCO [Choline],collision cross section (N2),[1]; [M]+,117 Å²
same,collision cross section (N2),[4],117.8 Å²
same,collision cross section (N2),[5]; [M]+,119 Å²
O=C(O)CC(O)(CC(=O)O)C(=O)O [Citric acid],collision cross section (N2),[1]; [M+Na]+,138 Å²
CC1=C2C(=CO[C@H](C)[C@H]2C)C(=O)C(C(=O)O)=C1O [Citrinin],collision cross section (N2),[2]; [M+H]+,148 Å²
NC(=O)NCCC[C@H](N)C(=O)O [Citrulline],collision cross section (N2),[1]; [M+H]+,132 Å²
CC(=O)C1=C(O)[C@@H]2[C@H]3c4c[nH]c5cccc(c45)C[C@H]3C(C)(C)N2C1=O [Cyclopiazonic acid],collision cross section (N2),[2]; [M-H]-,174 Å²
CC1=C[C@H]2O[C@@H]3[C@H](O)C[C@](C)([C@@]2(CO)[C@H](O)C1=O)[C@]31CO1 [Deoxynivalenol],collision cross section (N2),[2]; [M+H3C2O2]-,183 Å²
CC(C)[C@H]1C(=O)O[C@H](C(C)C)C(=O)N(C)[C@@H](C(C)C)C(=O)O[C@H](C(C)C)C(=O)N(C)[C@@H](C(C)C)C(=O)O[C@H](C(C)C)C(=O)N1C [Enniatin B],collision cross section (N2),[2]; [M+H]+,244.1 Å²
same,collision cross section (N2),[2]; [M+K]+,251.1 Å²
same,collision cross section (N2),[2]; [M+NH4]+,248 Å²
same,collision cross section (N2),[2]; [M+Na]+,248.9 Å²
OCC1(O)OC[C@@H](O)[C@@H](O)[C@@H]1O (stereo not given in full) [Fructose],collision cross section (N2),[1]; [M+Na]+,135 Å²
CCCC[C@@H](C)[C@@H](OC(=O)C[C@@H](CC(=O)O)C(=O)O)[C@H](C[C@@H](C)CCCCCC[C@@H](O)C[C@H](O)[C@H](C)N)OC(=O)C[C@@H](CC(=O)O)C(=O)O [Fumonisin B2],collision cross section (N2),[2]; [M+H]+,258 Å²
same,collision cross section (N2),[2]; [M+K]+,264.5 Å²
same,collision cross section (N2),[2]; [M+Na]+,259.2 Å²
Nc1nc(=O)c2ncn([C@@H]3O[C@H](COP(=O)(O)O)[C@@H](O)[C@H]3O)c2[nH]1 [GMP],collision cross section (N2),[1]; [M+H]+,176 Å²
OC[C@H]1OC(O)[C@H](O)[C@@H](O)[C@H]1O (stereo not given in full) [Galactose],collision cross section (N2),[1]; [M+Na]+,136 Å²
N[C@@H]1[C@@H](O)[C@H](O)[C@@H](COP(=O)(O)O)O[C@@H]1O [Glucosamine 6-phosphate],collision cross section (N2),[1]; [M+H]+,150 Å²
OC[C@H]1OC(O)[C@H](O)[C@@H](O)[C@@H]1O (stereo not given in full) [Glucose],collision cross section (N2),[1]; [M+Na]+,138 Å²
O=C(O)[C@H]1OC(O)[C@H](O)[C@@H](O)[C@@H]1O (stereo not given in full) [Glucuronic acid],collision cross section (N2),[1]; [M+Na]+,140 Å²
Nc1nc(=O)c2[nH]cnc2[nH]1 [Guanine],collision cross section (N2),[1]; [M+H]+,124 Å²
same,collision cross section (N2),[5]; [M+H]+,133.55 Å²
CCCC[C@@H](C)[C@@H](O)[C@@H](O)C[C@@H](C)C[C@H](O)CCCC[C@@H](O)C[C@H](O)[C@H](C)N [HFB1],collision cross section (N2),[2]; [M+K]+,214 Å²
same,collision cross section (N2),[2]; [M+Na]+,209.7 Å²
CC(=O)OC[C@]12C[C@H](OC(=O)CC(C)C)C(C)=C[C@H]1O[C@@H]1[C@H](O)[C@@H](O)[C@@]2(C)[C@]12CO2 [HT-2 toxin],collision cross section (N2),[2]; [M+NH4]+,203 Å²
CC[C@H](C)[C@H](N)C(=O)O [Isoleucine],collision cross section (N2),[1]; [M+H]+,129 Å²
CSCC[C@H](N)C(=O)O [Methionine],collision cross section (N2),[1]; [M+H]+,127 Å²
O=C(O)c1cccnc1 [Nicotinic acid],collision cross section (N2),[1]; [M+H]+,115 Å²
CC1=C[C@H]2O[C@@H]3[C@H](O)[C@@H](O)[C@](C)([C@@]2(CO)[C@H](O)C1=O)[C@]31CO1 [Nivalenol],collision cross section (N2),[2]; [M+H3C2O2]-,180 Å²
CCCCCC/C=C\CCCCCCCCCC(=O)OC[C@H](COP(=O)([O-])OCC[N+](C)(C)C)OC(=O)CCCCCCC/C=C\CCCCCC [PC(34:2)],collision cross section (N2),[6]; [M+H]+,282.64 Å² and 284.2 Å²
same,collision cross section (N2),[7]; [M+HCOO]-,285.5 Å²
same,collision cross section (N2),[7]; [M+H]+,285.2 Å²
same,collision cross section (N2),[7]; [M+Na]+,289.4 Å²
same,collision cross section (N2),[8]; [M+H]+,302.6 Å²
same,collision cross section (N2),[9]; [M+CH3COO]-,287.7 Å²
same,collision cross section (N2),[9]; [M+H]+,281.7 Å²
same,collision cross section (N2),[10]; [M+K]+,291.3 Å²
CCCCCCCC/C=C\CCCCCCCCCCCC(=O)OC[C@H](COP(=O)([O-])OCC[N+](C)(C)C)OC(=O)CCCCCCCCCCCCC [PC(36:1)],collision cross section (N2),[6]; [M+H]+,292.57 Å²
same,collision cross section (N2),[6]; [M+Na]+,294 Å²
same,collision cross section (N2),[7]; [M+HCOO]-,292.3 Å²
same,collision cross section (N2),[7]; [M+H]+,293.9 Å²
same,collision cross section (N2),[7]; [M+Na]+,297.1 Å²
same,collision cross section (N2),[8]; [M+H]+,306.2 Å²
same,collision cross section (N2),[9]; [M+CH3COO]-,294.5 Å²
same,collision cross section (N2),[9]; [M+H]+,291.6 Å²
CCCCC/C=C\C/C=C\CCCCCCCCCCCC(=O)O[C@H](COC(=O)CCCCCCC/C=C\CCCCCC)COP(=O)(O)OCCN [PE(38:3)],collision cross section (N2),[7]; [M-H]-,273.3 Å²
same,collision cross section (N2),[8]; [M+H]+,297.1 Å²
same,collision cross section (N2),[9]; [M-H]-,271.7 Å²
same,collision cross section (N2),[10]; [M+Na]+,289.3 Å²
CCCCC/C=C\C/C=C\C/C=C\C/C=C\CCCCCC(=O)O[C@H](COC(=O)CCCCCCC/C=C\C/C=C\CCCCC)COP(=O)(O)OCCN [PE(40:6)],collision cross section (N2),[7]; [M+H]+,284.5 Å²
same,collision cross section (N2),[7]; [M+Na]+,290.3 Å²
same,collision cross section (N2),[7]; [M-H]-,276.2 Å²
same,collision cross section (N2),[8]; [M-H]-,289.4 Å²
same,collision cross section (N2),[9]; [M+H]+,282.9 Å²
same,collision cross section (N2),[9]; [M-H]-,275.4 Å²
same,collision cross section (N2),[10]; [M+K]+,294.7 Å²
CCCCC/C=C\C/C=C\CCCCCCCCCC(=O)O[C@H](COC(=O)CCCCCCCCCCCCCC)COP(=O)(O)OC[C@@H](O)CO [PG(35:2)],collision cross section (N2),[11],271.4 Å²
same,collision cross section (N2),[8]; [M-H]-,278.7 Å²
CC(C)(O)[C@H]1O[C@H]2CC[C@@]3(C)[C@@](O)(CC[C@H]4Cc5c([nH]c6ccccc56)[C@@]43C)C2=CC1=O [Paxilline],collision cross section (N2),[2]; [M+H]+,201 Å²
N[C@@H](Cc1ccccc1)C(=O)O [Phenylalanine],collision cross section (N2),[1]; [M+H]+,135 Å²
Cc1ncc(CO)c(CN)c1O [Pyridoxamine],collision cross section (N2),[1]; [M+H]+,130 Å²
same,collision cross section (N2),[4],134 Å²
same,collision cross section (N2),[5]; [M+H]+,135.79 Å²
same,collision cross section (N2),[5]; [M+Na]+,148.49 Å²
C=CC(C)(C)C12CC3C(=O)N/C(=C/c4cnc[nH]4)C(=O)N3C1Nc1ccccc12 (stereo not given) [Roquefortine C],collision cross section (N2),[2]; [M+H]+,179 Å²
Nc1ncnc2c1ncn2[C@@H]1O[C@H](CSCC[C@H](N)C(=O)O)[C@@H](O)[C@H]1O [SAH],collision cross section (N2),[1]; [M+H]+,179 Å²
C[S+](CC[C@H](N)C(=O)[O-])C[C@H]1O[C@@H](n2cnc3c(N)ncnc32)[C@H](O)[C@@H]1O (stereo not given in full) [SAMe],collision cross section (N2),[1]; [M]+,184 Å²
COc1cc2c(c3oc4cccc(O)c4c(=O)c13)[C@@H]1C=CO[C@@H]1O2 [Sterigmatocystin],collision cross section (N2),[2]; [M+H]+,163 Å²
N[C@@H](Cc1ccc(O)cc1)C(=O)O [Tyrosine],collision cross section (N2),[1]; [M+H]+,139 Å²
O=c1ccn([C@@H]2O[C@H](COP(=O)(O)OP(=O)(O)O)[C@@H](O)[C@H]2O)c(=O)[nH]1 [UDP],collision cross section (N2),[1]; [M+H]+,174 Å²
O=c1cc[nH]c(=O)[nH]1 [Uracil],collision cross section (N2),[1]; [M+H]+,115 Å²
same,collision cross section (N2),[4],118.5 Å²
same,collision cross section (N2),[5]; [M+H]+,126.98 Å²
C[C@H]1CCC[C@@H](O)CCC/C=C/c2cc(O)cc(O)c2C(=O)O1 [beta-zearalenol],collision cross section (N2),[2]; [M-H]-,173 Å²
Cc1cn([C@H]2C[C@H](O)[C@@H](COP(=O)(O)O)O2)c(=O)[nH]c1=O [dTMP],collision cross section (N2),[1]; [M+Na]+,170 Å²
